# Measurements: patent publication US8268990B2, “Compounds” (AstraZeneca AB, priority 2007, dated 2012)
# Target: T1, Recombinant human TLR7 (Homo sapiens, UniProt Q9NYK1)
# T1 construct: expressed in transfected cells; host or cells: HEK293 cell line stably expressing the pNiFty2-SEAP reporter plasmid; TLR7 in vector pUNO, blasticidin selection
# T1 sequence (Q9NYK1 27-1049): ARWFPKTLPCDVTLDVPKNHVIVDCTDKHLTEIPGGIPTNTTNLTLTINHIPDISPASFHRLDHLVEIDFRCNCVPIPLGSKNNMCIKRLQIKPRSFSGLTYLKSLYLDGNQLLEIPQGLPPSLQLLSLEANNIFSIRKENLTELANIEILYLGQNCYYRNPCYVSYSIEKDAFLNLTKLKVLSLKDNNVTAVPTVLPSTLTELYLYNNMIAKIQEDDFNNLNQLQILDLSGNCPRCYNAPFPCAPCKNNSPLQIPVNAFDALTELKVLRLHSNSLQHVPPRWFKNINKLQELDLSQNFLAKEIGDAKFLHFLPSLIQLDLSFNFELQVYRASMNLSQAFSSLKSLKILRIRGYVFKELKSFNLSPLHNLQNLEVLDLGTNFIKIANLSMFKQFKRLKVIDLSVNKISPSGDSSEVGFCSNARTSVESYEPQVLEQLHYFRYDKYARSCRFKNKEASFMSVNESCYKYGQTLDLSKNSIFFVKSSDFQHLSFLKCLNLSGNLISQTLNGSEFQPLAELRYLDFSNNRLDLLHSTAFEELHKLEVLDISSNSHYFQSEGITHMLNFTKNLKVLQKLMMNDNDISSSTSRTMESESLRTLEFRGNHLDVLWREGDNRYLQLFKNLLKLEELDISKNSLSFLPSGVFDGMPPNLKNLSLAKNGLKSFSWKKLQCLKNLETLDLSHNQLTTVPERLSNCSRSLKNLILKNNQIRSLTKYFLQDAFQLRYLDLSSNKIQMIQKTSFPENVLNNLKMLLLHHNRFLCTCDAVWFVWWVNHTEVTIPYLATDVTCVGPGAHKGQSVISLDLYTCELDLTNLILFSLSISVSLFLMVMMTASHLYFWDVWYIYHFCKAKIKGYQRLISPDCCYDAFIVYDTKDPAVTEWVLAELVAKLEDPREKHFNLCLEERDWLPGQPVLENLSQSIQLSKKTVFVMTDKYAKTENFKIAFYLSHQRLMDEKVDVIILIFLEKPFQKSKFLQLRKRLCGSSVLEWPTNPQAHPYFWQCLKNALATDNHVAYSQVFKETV
# Assay: Human TLR7 Assay (SEAP reporter);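 further: SEAP driven by an NFkB-responsive composite promoter, pEC50 read at half of each compound's own maximal SEAP induction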
# Type: cell-based
# Details: HEK293 cell line stably expressing human TLR7 and pNiFty2-SEAP reporter; SEAP induction after overnight incubation at 37° C., 0.1% (v/v) DMSO
row,SMILES,EC50 [nM]
1,"CCCCCNc1nc(N)nc(C)c1CCCN(Cc1cccc(CC(=O)OC)c1)S(=O)(=O)c1cn(C)cn1 [Example 14, Methyl 2-(3-((N-(3-(2-amino-4-methyl-6-(pentylamino)pyrimidin-5-yl)propyl)-1-methyl-1H-imidazole-4-sulfonamido)methyl)phenyl)acetate]",1260
2,"CCCCCNc1nc(N)nc(C)c1Cc1ccc(CC(=O)OCCCN(C)C)cc1 [Example 37, 3-(Dimethylamino)propyl 2-(4-((2-amino-4-methyl-6-(pentylamino)pyrimidin-5-yl)methyl)phenyl)acetate]",126
3,"CCCCNc1nc(N)nc(C)c1Cc1cc(CC(=O)OCC2CCN(C)CC2)ccc1OC [Example 83, (1-Methylpiperidin-4-yl)methyl 2-(3-((2-amino-4-(butylamino)-6-methylpyrimidin-5-yl)methyl)-4-methoxyphenyl)acetate]",20
4,"CCCCCNc1nc(N)nc(C)c1CCCN(Cc1ccc(CC(=O)OC)cc1)C(=O)CN1CCCC(c2ccc(S(C)(=O)=O)cc2)C1 (centres unmarked) [Example 26, Methyl 2-(4-((N-(3-(2-amino-4-methyl-6-(pentylamino)pyrimidin-5-yl)propyl)-2-(3-(4-(methylsulfonyl)phenyl)piperidin-1-yl)acetamido)methyl)phenyl)acetate]",794
5,"CCC[C@@H](CO)Nc1nc(N)nc(C)c1Cc1ccc(CC(=O)OCC2CCN(C)CC2)cc1O [Example 76, (S)-(1-Methylpiperidin-4-yl)methyl 2-(4-((2-amino-4-(1-hydroxypentan-2-ylamino)-6-methylpyrimidin-5-yl)methyl)-3-hydroxyphenyl)acetate]",631
6,"CCCCCNc1nc(N)nc(C)c1Cc1ccc(CC(=O)OCCCCN(C)C)cc1 [Example 57, 4-(Dimethylamino)butyl 2-(4-((2-amino-4-methyl-6-(pentylamino)pyrimidin-5-yl)methyl)phenyl)acetate]",126
7,"CC[C@H](O)CNc1nc(N)nc(C)c1Cc1ccc(CC(=O)OCC2CCN(C)CC2)cc1 [Example 81, (S)-(1-Methylpiperidin-4-yl)methyl 2-(4-((2-amino-4-(2-hydroxybutylamino)-6-methylpyrimidin-5-yl)methyl)phenyl)acetate]",1000
8,"CCCCNc1nc(N)nc(C)c1Cc1ccc(CC(=O)OCCCCO)cc1OC [Example 91, 4-Hydroxybutyl 2-(4-((2-amino-4-(butylamino)-6-methylpyrimidin-5-yl)methyl)-3-methoxyphenyl)acetate]",20
9,"CCCCCNc1nc(N)nc(C)c1Cc1ccc(CC(=O)OC2CCN(C)CC2)cc1 [Example 59, 1-Methylpiperidin-4-yl 2-(4-((2-amino-4-methyl-6-(pentylamino)pyrimidin-5-yl)methyl)phenyl)acetate]",126
10,"CCCCCNc1nc(N)nc(C)c1Cc1ccc(CC(=O)OCCN2CCOCC2)cc1 [Example 35, 2-Morpholinoethyl 2-(4-((2-amino-4-methyl-6-(pentylamino)pyrimidin-5-yl)methyl)phenyl)acetate]",251
11,"CCCCNc1nc(N)nc(C)c1Sc1ccc(CC(=O)OCCCCN2CCCC2)cc1 [Example 96, 4-(Pyrrolidin-1-yl)butyl 2-(4-(2-amino-4-(butylamino)-6-methylpyrimidin-5-ylthio)phenyl)acetate]",50.1
12,"CCCCCNc1nc(N)nc(C)c1CCCN(Cc1cccc(CC(=O)OC)c1)C(=O)CCC(=O)OC [Example 11, Methyl 4-((3-(2-amino-4-methyl-6-(pentylamino)pyrimidin-5-yl)propyl)(3-(2-methoxy-2-oxoethyl)benzyl)amino)-4-oxobutanoate]",1000
13,"CCCC[C@@H](CCO)Nc1nc(N)nc(C)c1Cc1ccc(CC(=O)OC)cc1 [Example 50, (S)-Methyl 2-(4-((2-amino-4-(1-hydroxyheptan-3-ylamino)-6-methylpyrimidin-5-yl)methyl)phenyl)acetate]",158
14,"CCCCCNc1nc(N)nc(C)c1Cc1ccc(CC(=O)OCCCCN2CCS(=O)(=O)CC2)cc1 [Example 64, 4-(1,1-Dioxidothiomorpholin-4-yl)butyl(4-{[2-amino-4-methyl-6-(pentylamino)pyrimidin-5-yl]methyl}phenyl)acetate]",2510
15,"CCCCNc1nc(N)nc(C)c1Cc1ccc(CC(=O)OCCCS(C)(=O)=O)cc1OC [Example 92, 3-(Methylsulfonyl)propyl 2-(4-((2-amino-4-(butylamino)-6-methylpyrimidin-5-yl)methyl)-3-methoxyphenyl)acetate]",20
16,"CCC[C@@H](CCO)Nc1nc(N)nc(C)c1Cc1cc(CC(=O)OC)ccc1F [Example 42, (S)-Methyl 2-(3-((2-amino-4-(1-hydroxyhexan-3-ylamino)-6-methylpyrimidin-5-yl)methyl)-4-fluorophenyl)acetate]",631
17,"CCCC[C@@H](CCO)Nc1nc(N)nc(C)c1Cc1ccc(CC(=O)OC)cc1F [Example 33, (S)-Methyl 2-(4-((2-amino-4-(1-hydroxyheptan-3-ylamino)-6-methylpyrimidin-5-yl)methyl)-3-fluorophenyl)acetate]",50.1
18,"CCCC[C@@H](CCO)Nc1nc(N)nc(C)c1Cc1ccc(CC(=O)OC)cc1OC [Example 31, (S)-Methyl 2-(4-((2-amino-4-(1-hydroxyheptan-3-ylamino)-6-methylpyrimidin-5-yl)methyl)-3-methoxyphenyl)acetate]",6.31
19,"CCCCCNc1nc(N)nc(C)c1Cc1ccc(CC(=O)OCCCCN2CCC(N(C)C)CC2)cc1 [Example 68, 4-(4-(Dimethylamino)piperidin-1-yl)butyl 2-(4-((2-amino-4-methyl-6-(pentylamino)pyrimidin-5-yl)methyl)phenyl)acetate]",631
20,"CCCCNc1nc(N)nc(C)c1Cc1ccc(CC(=O)OC)cc1O [Example 77, Methyl 2-(4-((2-amino-4-(butylamino)-6-methylpyrimidin-5-yl)methyl)-3-hydroxyphenyl)acetate]",63.1
21,"CCCCCNc1nc(N)nc(C)c1CCCN(Cc1ccc(CC(=O)OC)cc1)C(=O)CN(C)C [Example 4, Methyl 2-(4-((N-(3-(2-amino-4-methyl-6-(pentylamino)pyrimidin-5-yl)propyl)-2-(dimethylamino)acetamido)methyl)phenyl)acetate]",398
22,"CCCC[C@@H](CCO)Nc1nc(N)nc(C)c1CCCNCc1ccc(CC(=O)OC)cc1 [Example 18, (S)-Methyl 2-(4-((3-(2-amino-4-(1-hydroxyheptan-3-ylamino)-6-methylpyrimidin-5-yl)propylamino)methyl)phenyl)acetate]",1580
23,"CCCCCNc1nc(N)nc(C)c1CCCNCc1cccc(OCC(=O)OC)c1 [Example 25, Methyl 2-(3-((3-(2-amino-4-methyl-6-(pentylamino)pyrimidin-5-yl)propylamino)methyl)phenoxy)acetate]",794
24,"CCCCCNc1nc(N)nc(C)c1Cc1ccc(CC(=O)OCC2CCNCC2)cc1 [Example 67, Piperidin-4-ylmethyl 2-(4-((2-amino-4-methyl-6-(pentylamino)pyrimidin-5-yl)methyl)phenyl)acetate]",794
25,"CCC[C@@H](CCO)Nc1nc(N)nc(C)c1Cc1ccc(CC(=O)OCCCCN2CCCC2)cc1O [Example 78, (S)-4-(Pyrrolidin-1-yl)butyl 2-(4-((2-amino-4-(1-hydroxyhexan-3-ylamino)-6-methylpyrimidin-5-yl)methyl)-3-hydroxyphenyl)acetate]",50.1
26,"CCCCCNc1nc(N)nc(C)c1CCCNC(=O)Cc1ccc(CC(=O)OC)cc1 [Example 23, Methyl 2-(4-(2-(3-(2-amino-4-methyl-6-(pentylamino)pyrimidin-5-yl)propylamino)-2-oxoethyl)phenyl)acetate]",1000
27,"CCCCNc1nc(N)nc(C)c1Cc1ccc(CC(=O)OCC2CCN(C)CC2)cc1OC [Example 72, (1-Methylpiperidin-4-yl)methyl 2-(4-((2-amino-4-(butylamino)-6-methylpyrimidin-5-yl)methyl)-3-methoxyphenyl)acetate]",15.8
28,"CCCCCNc1nc(N)nc(C)c1Cc1cc(CC(=O)OC)ccc1OC [Example 54, Methyl 2-(3-((2-amino-4-methyl-6-(pentylamino)pyrimidin-5-yl)methyl)-4-methoxyphenyl)acetate]",79.4
29,"CCCCCNc1nc(N)nc(C)c1Cc1ccc(CC(=O)OCCC2CCN(C)CC2)cc1 [Example 66, 2-(1-Methylpiperidin-4-yl)ethyl 2-(4-((2-amino-4-methyl-6-(pentylamino)pyrimidin-5-yl)methyl)phenyl)acetate]",158
